Results taken from patent US12109176B1, “Effect of glycerol on biofilm forming bacteria and fungi that changes the microbes sensitivity to pro and anti-biofilm non-toxic, non-bonded plasma amino acids and amino acid derivatives” (priority 2023, dated 2024).

Experiments:
[1] = test system: bacterial (S. aureus) biofilm and fungal biofilm (C. albicans); experiment: Biofilm disruption assay, bacterial and fungal taken together; assay type: cell-based
Procedure: (§1) Two types of biofilm assays were performed: an inhibition assay and a disruption assay. The inhibition assay assesses the compound's ability to prevent biofilm development, while the disruption assay assesses the compound's ability to break up an existing mature biofilm.
(§2) All bacterial biofilm solutions were prepared in Tryptic Soy Broth (TSB), supplemented with 1% glucose (henceforth referred to as TSB-G). All subsequent procedures were performed in a manner that maintained sterility. A solution of each amino acid or an amino acid derivative to be tested was prepared in weight to volume concentrations ranging from 0.1-5.0%. Amino acids and amino acid derivatives were also tested in combinations. Compound solutions were homogenized with gentle agitation in the dark (4° C., 24 hours) before use.
(§3) 32 Amino acids and 2 amino acid derivatives of the amino acid serine that occur freely in human blood were tested. […] 31 of the 32 amino acids that were tested were the L-Isomers. Glycine has no stereoisomers. The 2 amino acid derivatives, ethanolamine and phosphoethanolamine were also tested. All biofilm assays were performed using 384-well non-tissue culture-treated polystyrene plates. The fungal species tested are as follows: Candida albicans, Candida guilliermondii, Candida parapsilosis, Candida glabrata, Candida tropicalis and Candida dubliniensis. The bacterial species tested are as follows: Staphylococci (standard wild type and methicillin-resistant strain USA300), Escherichia coli, Pseudomonas aeruginosa and Staphylococcus epidermidis.
(§4) Fungal strains were streaked on Yeast Peptone Dextrose (YPD) agar plates and incubated at 30° C. for 48 hours. A single colony from each strain to be tested was inoculated into YPD broth and grown for 12 hours at 30° C., shaking at 225 rpm. […] The cells were allowed to adhere to the plate for 90 minutes at 37° C. with shaking (350 rpm). […] The plate was further incubated for 24 hours at 37° C. with shaking (350 rpm). Media was carefully aspirated and the biofilm was measured by optical density at 600 nm. […] The cells were allowed to adhere to the plate for 90 minutes at 37° C. with shaking (350 rpm). […] The plate was further incubated for 24 hours at 37° C. with shaking (350 rpm). […] The plate was further incubated for 24 hours at 37° C. with shaking (350 rpm). Media was carefully aspirated, and the biofilm was measured by optical density at 600 nm.
(§5) Bacterial strains were streaked on Blood Agar plates (5% sheep blood in Tryptic Soy Broth) and incubated at 37° C. for 24 hours. A single colony from each strain to be tested was inoculated in a TSB broth and grown for 12 hours, at 37° C. with shaking (225 rpm). For the bacterial biofilm inhibition assays, 1 μL of saturated overnight cell culture was added to either 80 μL of TSB-G, or TSB-G supplemented with the amino acid compound solution to be tested, in a 384-well plate. The cells were allowed to adhere to the plate for 60 minutes at 37° C. without shaking. The media was carefully aspirated and 80 μL of TSB-G, or TSB-G supplemented with the amino acid compound solution was added to the plate. The plate was further incubated for 24 hours at 37° C. without shaking. Media was carefully aspirated and the biofilm was measured by optical density at 600 nm. Eight or twelve replicates were performed for each tested condition and the reported values are normalized to the control (TSB-G media only). For the bacterial biofilm disruption assays, 80 µL of TSB-G was added to the plate, along with 1 μL of overnight cell culture. The cells were allowed to adhere to the plate for 60 minutes at 37° C. with no shaking. The media was carefully aspirated and 80 μL of TSB-G was added to the plate. The plate was further incubated for 24 hours at 37° C. with no shaking. Media was carefully aspirated from the mature biofilm and 80 μL of TSB-G, or TSB-G supplemented with the amino acid to be tested, was gently added to the plate.

[2] = test system: fungal biofilm (C. albicans); experiment: Fungal biofilm inhibition assay; assay type: cell-based, Candida albicans
Procedure: as §1, §2, §3, §4

[3] = test system: bacterial (S. aureus) biofilm; experiment: Bacterial biofilm disruption assay; assay type: cell-based, Staphylococcus aureus
[4] = test system: bacterial and fungal biofilm; experiment: In vitro testing on bacterial and fungal biofilm (assay not told apart); assay type: cell-based; details: for effect on bacterial and fungal biofilm (in words): in vitro testing
Procedure: as §1, §2, §3, §4, §5

[5] = test system: bacterial (S. aureus) biofilm; experiment: Bacterial biofilm inhibition assay; assay type: cell-based, Staphylococcus aureus
bacterial biofilm = experiment: In vitro testing on bacterial biofilm (inhibition and/or disruption); assay type: cell-based; details: in vitro testing
[6] = test system: fungal biofilm (C. albicans); experiment: Fungal biofilm disruption assay; assay type: cell-based, Candida albicans
[7] = test system: bacterial (S. aureus) biofilm and fungal biofilm (C. albicans); experiment: Biofilm inhibition assay, bacterial and fungal taken together; assay type: cell-based; details: for Neutral (square: Inhibition Biofilm Assay): symbol marks the assay
fungal biofilm = experiment: In vitro testing on fungal biofilm (inhibition and/or disruption); assay type: cell-based; details: in vitro testing
[8] = Thermal degradation in hot aqueous solution; assay type: physicochemical; details: water at about 90 C. to 100 C.
Source text: In order to promote the dissolution of the various amino acids in water, the water is usually maintained at a temperature of about 90 C. to 100 C.

[9] = in vivo
[10] = Table D, bacterial and fungal biofilm
[11] = Table F, in the presence of a sufficient concentration of glycerol

Structure (SMILES): N[C@@H](CCC(=O)O)C(=O)O [Glutamic Acid, L-glutamic acid]
- Reduce Both (dots: Disruption Biofilm Assay) [1, 10]: ●● (Two dots [ie. ●●] signifies a major effect (greater than about 50%), on the Disruption Biofilm Assay)
- Reduce Both (dots: Disruption Biofilm Assay) [1, 11]: ●● (Two dots [ie. ●●] signifies a major effect (greater than about 50%), on the Disruption Biofilm Assay)
- Reduce or Inhibit F Biofilm (squares: Inhibition Biofilm Assay) ([2]; Table D, 0.1 to 5.0%): ▪▪ (Two squares [ie. ▪▪] signifies a major effect (greater than about 50%), on the Inhibition Biofilm Assay)
- Reduce or Inhibit F Biofilm (squares: Inhibition Biofilm Assay) [2, 11]: ▪▪ (Two squares [ie. ▪▪] signifies a major effect (greater than about 50%), on the Inhibition Biofilm Assay)
- Reduce or Inhibit B Biofilm (dots: Disruption Biofilm Assay) ([3]; Table D, 0.1 to 5.0%): ●● (Two dots [ie. ●●] signifies a major effect (greater than about 50%), on the Disruption Biofilm Assay)
- Reduce or Inhibit B Biofilm (dots: Disruption Biofilm Assay) [3, 11]: ●● (Two dots [ie. ●●] signifies a major effect (greater than about 50%), on the Disruption Biofilm Assay)
- ideal concentration for antibiofilm effect ([4]; in the absence of glycerol on in vitro testing): 0.5 g %
- effect on bacterial and fungal biofilm (in words) [4]: very active against both bacterial and fungal biofilm
- effect on bacterial and fungal biofilm (in words) ([4]; listed as Glutamic acid): strong effect on biofilm-forming bacteria and fungi in reducing biofilm formation
- concentration of maximum (ideal) antibiofilm effect ([4]; tested on its own, without glycerol): 0.5%
- Reduce or Inhibit B Biofilm (squares: Inhibition Biofilm Assay) ([5]; Table D, 0.1 to 5.0%): ▪▪ (Two squares [ie. ▪▪] signifies a major effect (greater than about 50%), on the Inhibition Biofilm Assay)
- Reduce or Inhibit B Biofilm (squares: Inhibition Biofilm Assay) [5, 11]: ▪▪ (Two squares [ie. ▪▪] signifies a major effect (greater than about 50%), on the Inhibition Biofilm Assay)
- effect on bacterial biofilm (in words) (bacterial biofilm): antibacterial biofilm effect
- Reduce or Inhibit F Biofilm (dots: Disruption Biofilm Assay) ([6]; Table D, 0.1 to 5.0%): ●● (Two dots [ie. ●●] signifies a major effect (greater than about 50%), on the Disruption Biofilm Assay)
- Reduce or Inhibit F Biofilm (dots: Disruption Biofilm Assay) [6, 11]: ●● (Two dots [ie. ●●] signifies a major effect (greater than about 50%), on the Disruption Biofilm Assay)
- Reduce Both (squares: Inhibition Biofilm Assay) [7, 10]: ▪▪ (Two squares [ie. ▪▪] signifies a major effect (greater than about 50%), on the Inhibition Biofilm Assay)
- Reduce Both (squares: Inhibition Biofilm Assay) [7, 11]: ▪▪ (Two squares [ie. ▪▪] signifies a major effect (greater than about 50%), on the Inhibition Biofilm Assay)
- effect on fungal biofilm (in words) (fungal biofilm): antifungal biofilm effects

Structure (SMILES): NC(=O)CC[C@H](N)C(=O)O [Glutamine, L-glutamine]
- thermal stability in aqueous solution [8]: too susceptible to thermal degradation
- Neutral (square: Inhibition Biofilm Assay) ([7]; Table D, Neutral = no effect on the biofilm): ▪ (Single square [ie. ▪] signifies little effect on the Inhibition Biofilm Assay (from about 10 to less than 30%))
- Neutral (square: Inhibition Biofilm Assay) ([7]; Table E, in the absence of an infusion of glycerol): ▪ (Single square [ie. ▪] signifies little effect on the Inhibition Biofilm Assay (from about 10 to less than 30%))
- Neutral (square: Inhibition Biofilm Assay) [7, 11]: ▪ (Single square [ie. ▪] signifies little effect on the Inhibition Biofilm Assay (from about 10 to less than 30%))

Structure (SMILES): OCC(O)CO [glycerol]
- effect on bacterial and fungal biofilm (in words) [4]: not found to have antibiofilm effect
- toxicity of the glycerol infusion [9]: non-toxic to humans
